Measured values as given in patent publication US10478455B2, “Therapeutic use of tetrathiomolybdate” (UCL BUSINESS LTD, priority 2010, dated 2019).

Key:
Soleus muscle fibres = test: Study 5: ex-vivo inhibition of oxygen consumption in permeabilized soleus muscle fibres (Clark electrode); conditions: TTM 0.5-2 mM, saponin-permeabilized rat soleus muscle fibres
Method: This study investivated ex-vivo Inhibition of oxygen consumption by TTM. Soleus muscle was removed from the hind limbs of male Wistar rats and preserved on ice in a physiological buffer solution. Muscle fibres were isolated with forceps and permeabilized with saponin. Muscle fibres were placed in a closed chamber containing a physiological solution and substrates for oxidative metabolism. Oxygen concentrations within the chamber were measured using a Clark electrode. The fall in oxygen concentration over time (gradient) reflects oxygen consumption by the tissue. Either vehicle or TTM (0.5-2 mM) was added to the chamber and oxygen consumption assessed. […] This further highlights the ability of TTM to decrease metabolism.

[1] = Study 4: plasma sulphide after i.v. TTM (monobromobimane-based HPLC assay); assay type: in vivo, rat
Method: This study investigated sulphide release from tetrathiomolybdate (TTM). Male Wistar rats were anaesthetized allowing insertion of carotid arterial and jugular venous lines for blood sampling and drug administration, respectively. Plasma sulphide levels (measured using a monobromobimane-based HPLC assay) were determined up to 2 h following bolus i.v. administration of TTM (10 mg/kg) or for 3 h after the onset of two continuous i.v. infusions (10 and 20 mg/kg/h).

endotoxaemic animals = test: Study 3: core temperature during endotoxaemia (lipopolysaccharide, Klebsiella pneumoniae); assay type: in vivo, rat
Method: FIG. 3: Protocol for endotoxaemia experiments. ETX is endotoxin, TTM is tetrathiomolybdate. Fluids: a 50:50 mix of colloid and crystalloid plus glucose. TTM was diluted in normal saline and administered as a 4 ml/kg bolus. Animals received a venous line for drug administration under anaesthesia. Endotoxaemia (which typically causes an increase in core temperature) was induced by intravenous administration of lipopolysaccharide (20 mg/kg, Klebsiella pneumoniae). TTM or vehicle was administered 1 h following the onset of endotoxaemia (FIG. 3; protocol).

[2] = test system: rat model of haemorrhage/reperfusion injury; test: Study 6: rat model of haemorrhage/reperfusion injury; assay type: in vivo
Method: This study investigated effects of TTM in a rat model of haemorrhage/reperfusion injury. Male Wistar rats were anaesthetized for insertion of carotid arterial and jugular venous lines for blood removal and fluid/drug administration, respectively. After 30 min stabilization, 50% estimated circulating blood volume was removed from the arterial line over 15 min. Animals were monitored for a further 90 min prior to resuscitation, then randomized to receive either TTM or placebo (normal saline). TTM (10 mg/kg) was administered as an i.v. bolus (2 ml/kg). This was immediately followed by administration of shed blood over 15 min. In TTM-treated animals, the shed blood was supplemented with a further 2.5 mg/kg TTM; total dose 12.5 mg/kg. Placebo treated animals received equivalent volumes of fluid and administration of shed blood. Following resuscitation, both groups of animals received 10 ml/kg/h n-saline and were monitored up to 6 h post-resuscitation. […] Thus, TTM administration improves outcome following severe haemorrhage/reperfusion injury. This beneficial effect is potentially mediated by modulation of metabolism.

Male Wistar rats [3] = test: Study 1: oxygen consumption and carbon dioxide production in awake rats in a metabolic cart; assay type: in vivo, rat
Method: Male Wistar rats (300 g) were anaesthetised and instrumented with a venous line for drug administration. The animals were placed into a metabolic cart and allowed to recover from anaesthesia. After 2 h, TTM was administered i.v. hourly at increasing doses (2, 5, 10 and 20 mg/kg). Oxygen consumption and carbon dioxide production were continually monitored for the duration of the experiment. TTM induced a clear drop in oxygen consumption and carbon dioxide production at 10 and 20 mg/kg (FIG. 1), compared to time-matched control animals (sham) receiving only vehicle (saline).

Male Wistar rats [4] = test: Study 2: core temperature in anaesthetised rats; assay type: in vivo, rat; conditions: anaesthetised rats, 0.2, 2 and 20 mg/kg every 20 minutes; measured 20 minutes after the last dose, vs saline
Method: Animals were anaesthetised and instrumented as above. Under continuous anaesthesia, TTM was administered every 20 minutes at increasing doses (0.2, 2 and 20 mg/kg). Core temperature was measured at the beginning of the experiment (i.e. before TTM administration) and 20 minutes after the last dose of the drug (20 mg/kg).

Wilson's disease = conditions: cited from earlier work
[5] = awake rats, TTM i.v. hourly at increasing doses, effect at 10 and 20 mg/kg vs sham (saline)

Compound | oxygen consumption ex vivo (Soleus muscle fibres) | plasma sulphide half-life ([1]; bolus i.v. 10 mg/kg) [min] | plasma sulphide levels ([1]; bolus i.v. 10 mg/kg, up to 2 h) | time to steady state of plasma sulphide ([1]; continuous i.v. infusion 10 and 20 mg/kg/h) [h] | plasma sulphide levels ([1]; continuous i.v. infusion 10 and 20 mg/kg/h, 3 h) | core temperature at highest dose (endotoxaemic animals; TTM 20 mg/kg, 1 h after onset of endotoxaemia) | hyperthermic response to endotoxin (core temperature) (endotoxaemic animals; TTM given 1 h after onset of endotoxaemia (LPS 20 mg/kg i.v.)) | 6 h survival post-resuscitation ([2]; TTM 10 mg/kg i.v. bolus plus 2.5 mg/kg in shed blood (total 12.5 mg/kg) vs placebo) | core temperature ([2]; TTM total dose 12.5 mg/kg, haemorrhage/reperfusion) | conscious level (Male Wistar rats [3]; awake rats during intravenous infusion of TTM) | carbon dioxide production (Male Wistar rats [3]; [5]) | oxygen consumption (Male Wistar rats [3]; [5]) | core temperature (Male Wistar rats [4]) | neurological function in patients who present with neurologic disease (Wilson's disease)
[SH-].[SH-].[S]=[Mo]=[S] [TTM, Tetrathiomolybdate] | dose-dependent inhibition of oxygen consumption | 17 | high levels of sulphide in plasma | 2 | dose-dependent increase in plasma sulphide levels | induced significant hypothermia | ablated the hyperthermic response to endotoxin | significant improvement in 6 h survival | Core temperature fell | conscious level was maintained | clear drop | clear drop | decrease in core temperature | –
ammonium TTM | – | – | – | – | – | – | – | – | – | – | – | – | – | preserves neurological function
